# Test results: patent publication US20220110924A1, “METHODS AND COMPOSITIONS FOR GENETIC MODULATION OF TUMOR MICROENVIRONMENTS” (HUYABIO International, LLC, priority 2020, published 2022)
# B1: Mogamulizumab: RR/ATL treatment listed as historical benchmark (antibody, chains of the INN, looked up, V domains shown)
# VH: EVQLVESGGDLVQPGRSLRLSCAASGFIFSNYGMSWVRQAPGKGLEWVATISSASTYSYYPDSVKGRFTISRDNAKNSLYLQMNSLRVEDTALYYCGRHSDGNFAFGYWGQGTLVTVSS
# VL: DVLMTQSPLSLPVTPGEPASISCRSSRNIVHINGDTYLEWYLQKPGQSPQLLIYKVSNRFSGVPDRFSGSGSGTDFTLKISRVEAEDVGVYYCFQGSLLPWTFGQGTKVEIK
# Key:
# RR/ATL = details: cited from earlier work; for ORR: RR/ATL historical benchmark
# RR/PTCL = RR/PTCL historical benchmark, cited from earlier work
# [1] = tolerability, treatment related adverse events (Example 4); format: in vivo, human
# Protocol: The tolerability of the compounds of formula I, nivolumab, and a combination of the compounds of formula I and nivolumab were tested. The Phase 2 clinical dosage of 30 mg BIW of the compounds of formula I was administered.
# MC38 tumors [2] = experiment: NanoString nCounter PanCancer Immune Profiling Panel gene expression; format: in vivo, C57BL/6 mice
# Protocol: Gene expression studies were carried out using excised MC38 tumors (n=20 animals/treatment) isolated from syngeneic C57BL/6 mice treated for 7, 14, or 17 days with HBI-8000 (50 mg/kg, daily), anti-PD-1 (10 mg/kg, biweekly), or the combination of HBI-8000+anti-PD-1 (50 mg/kg, daily, 10 mg/kg, biweekly). At study termination, tumor samples from the treated mice were collected and fixed in formalin for 24 h and transferred to EtOH, followed by the preparation of formalin-fixed paraffin embedded blocks. Tumor sections (5-10 μm) were prepared from the formalin-fixed paraffin-embedded blocks, and total RNA was isolated from tissue scraped from 4 to 6 slides using the protocol recommended by NanoString Technologies (Seattle, Wash.). The nCounter PanCancer Immune Profiling panel developed and provided by NanoString Technologies was initially selected for expression analyses with an additional 20 genes added as a Panel Plus Codeset. The additional genes were predicted to be regulated by HBI-8000+/−ICI treatment. The nCounter assays were performed according to the manufacturer's instructions using the nCounter FLEX system.
# Gene expression data were analyzed using nSolver software provided by NanoString Technologies, Inc. Raw data were normalized to the geometric mean values of the internal synthetic positive controls and geometric means of the housekeeping genes, as recommended by the manufacturer. The NanoString Technologies' nSolver Analysis Software 4.0 generated cell type scores, pathway scores, heatmaps, and individual gene normalized data from the nCounter PanCancer Immune Profiling Panel Plus dataset. The cell type score quantifies cell populations using marker genes for given cell types; by centering the mean at 0 for each cell type, immune cell type abundance can be compared on the same scale. The same method was used to generate immune-relevant pathway scores; summarizing the data from multiple genes in a pathway into a single score allowed for comparison between treatments for pathway analysis.
# Normalized gene expression data for individual genes was exported from nSolver, annotated with percent of tumor growth inhibition (% TGI), and then imported into GraphPad Prism 7.04.
# To investigate the mechanism of action of HBI-8000 in combination therapy with ICIs, larger groups of mice (n=20/group) were implanted with MC38 tumors to sufficiently power the statistical analysis. A baseline no-treatment tumor-bearing group was killed 1 day before initiating treatment. Mice in each treatment arm (n=20) were killed at days 7, 14, and 17 post treatment initiation. The NanoString nCounter PanCancer Immune Profiling Panel analysis allows for clustering of immune response-related genes into “gene sets” comprising a collection of genes selected as being representative of an element of the immune response (i.e., cell type, pathway), and provides a high level view of the antitumor response, which is depicted as scatterplots in FIG. 9A. While all the scores were elevated in the PD-1 Ab plus HBI-8000 combination agent cohorts, it is noteworthy that a subset of cell type scores was augmented by either PD-1 Ab or HBI-8000 alone as early as day 7.
# MC38 tumors [3] = experiment: model of PD-1 antibody failure or stable disease, second-line therapy; format: in vivo; details: second-line therapy in mice failing PD-1 Ab therapy, n=10/group, end of study
# Protocol: To establish a model of PD-1 antibody failure or stable disease, 150 mice were initially treated biweekly for 3 weeks with first-line anti-PD-1 Ab (5 mg/kg, intraperitoneal administration).
# Human cancer patients receiving ICI therapy often experience a transient response or stable disease, but eventually develop resistance and progress, a challenge to which major efforts are directed. […] To explore the effect of HBI-8000 plus ICI on acquired resistance, we developed a model based on the repeated observations that tumor-bearing mice treated initially (first-line) with single agent PD-1 Ab or PD-L1 Ab display […] patterns of growth: approximately 20% experience rapid progression, approximately 20% experience complete regression, and approximately 60% experience stable tumor growth (defined as 3 consecutive tumor volume measurements with no significant change) or slow progression (relative to rapid growth and progression), which somewhat approximates the clinical situation. Using the above model, we treated a large cohort of tumor-bearing mice with PD-1 Ab alone. Once they reached the criteria for stable disease or slow progression, they were randomized into 6 treatment arms as indicated in FIG. 13. We compared the effect of halting treatment (Vehicle), continuing to treat with PD-1 Ab, or continuing PD-1 Ab in combination with HBI-8000. […]
molecule,measurement,setting,value
Nc1cccc2c1CN(C1CCC(=O)NC1=O)C2=O (centres unmarked) [Lenalidomide],ORR,RR/ATL,42%
same,ORR in moga patients,RR/ATL; RR/ATL patients who had received mogamulizumab,18%
C#CCC(Cc1cnc2nc(N)nc(N)c2n1)c1ccc(C(=O)N[C@@H](CCC(=O)O)C(=O)O)cc1 (some centres unmarked) [Pralatrexate],ORR,RR/PTCL,45%
NIVO: fully human monoclonal antibody directed against PD-1,"Anemia, TRAE",[1]; G1-2,0 n (% of N)
same,"Diarrhea, TRAE",[1]; G1-2,4 (6) n (% of N)
same,"Fatigue, TRAE",[1]; G1-2,0 n (% of N)
same,"Hypophospatemia, TRAE",[1]; G1-2,0 n (% of N)
same,"Lymphocyte decrease, TRAE",[1]; G1-2,0 n (% of N)
same,"Neutrophil decrease, TRAE",[1]; G1-2,0 n (% of N)
same,"Platelet decrease, TRAE",[1]; G1-2,0 n (% of N)
same,"WBC decrease, TRAE",[1]; G1-2,0 n (% of N)
same,"Anemia, TRAE",[1]; G3,0 n (% of N)
same,"Diarrhea, TRAE",[1]; G3,1 (2) n (% of N)
same,"Fatigue, TRAE",[1]; G3,0 n (% of N)
same,"Hypophospatemia, TRAE",[1]; G3,0 n (% of N)
same,"Lymphocyte decrease, TRAE",[1]; G3,0 n (% of N)
same,"Neutrophil decrease, TRAE",[1]; G3,0 n (% of N)
same,"Platelet decrease, TRAE",[1]; G3,0 n (% of N)
same,"WBC decrease, TRAE",[1]; G3,0 n (% of N)
same,"Anemia, TRAE",[1]; G4,0 n (% of N)
same,"Diarrhea, TRAE",[1]; G4,0 n (% of N)
same,"Fatigue, TRAE",[1]; G4,0 n (% of N)
same,"Hypophospatemia, TRAE",[1]; G4,0 n (% of N)
same,"Lymphocyte decrease, TRAE",[1]; G4,0 n (% of N)
same,"Neutrophil decrease, TRAE",[1]; G4,0 n (% of N)
same,"Platelet decrease, TRAE",[1]; G4,0 n (% of N)
same,"WBC decrease, TRAE",[1]; G4,0 n (% of N)
same,"TSH increase, TRAE",[1]; less frequent TRAEs,5 n
same,"amylase increase, TRAE",[1]; less frequent TRAEs,4 n
same,"lipase increase, TRAE",[1]; less frequent TRAEs,6 n
same,"rash, TRAE",[1]; less frequent TRAEs,10 n
Nc1cc(F)ccc1NC(=O)c1ccc(CNC(=O)/C=C/c2cccnc2)cc1 [Epidaza (China)],ORR (PMS),RR/PTCL; value in brackets (PMS),35%
same,ORR,RR/PTCL,28%
"Nc1cc(F)ccc1NC(=O)c1ccc(CNC(=O)/C=C/c2cccnc2)cc1 [HBI-8000, N-(2-amino-4-fluorophenyl)-4-[[[(2E)-1-oxo-3-(3-pyridinyl)-2-propen-1-yl]amino]methyl]benzamide]","cell type scores corresponding to dendritic cells, macrophages, NK cells, cytotoxic cells, and CD45 cells",MC38 tumors [2]; as early as day 7,augmented
same,"directed global significance score, Adaptive","MC38 tumors [2]; day 17, vs. Control",2
same,"directed global significance score, Adhesion","MC38 tumors [2]; day 17, vs. Control",2
same,"directed global significance score, Antigen processing","MC38 tumors [2]; day 17, vs. Control",1.8
same,"directed global significance score, Apoptosis","MC38 tumors [2]; day 17, vs. Control",1.8
same,"directed global significance score, B cell Functions","MC38 tumors [2]; day 17, vs. Control",1.5
same,"directed global significance score, Basic Cell Function","MC38 tumors [2]; day 17, vs. Control",1.5
same,"directed global significance score, CD molecules","MC38 tumors [2]; day 17, vs. Control",1.7
same,"directed global significance score, Cancer progression","MC38 tumors [2]; day 17, vs. Control",1.8
same,"directed global significance score, Cell cycle","MC38 tumors [2]; day 17, vs. Control",1.5
same,"directed global significance score, Chemokine and Receptors","MC38 tumors [2]; day 17, vs. Control",1.5
same,"directed global significance score, Class I MHC mediated antigen process","MC38 tumors [2]; day 17, vs. Control",1.5
same,"directed global significance score, Complement pathway","MC38 tumors [2]; day 17, vs. Control",0
same,"directed global significance score, Costimulation by the CD28 family","MC38 tumors [2]; day 17, vs. Control",1
same,"directed global significance score, Cytokines and Receptors","MC38 tumors [2]; day 17, vs. Control",1.8
same,"directed global significance score, Dendritic cell Functions","MC38 tumors [2]; day 17, vs. Control",1.8
same,"directed global significance score, Humoral","MC38 tumors [2]; day 17, vs. Control",1.8
same,"directed global significance score, Inflammation","MC38 tumors [2]; day 17, vs. Control",1.8
same,"directed global significance score, Innate","MC38 tumors [2]; day 17, vs. Control",1.8
same,"directed global significance score, Interferon","MC38 tumors [2]; day 17, vs. Control",1.5
same,"directed global significance score, Interleukin","MC38 tumors [2]; day 17, vs. Control",1.5
same,"directed global significance score, Leukocyte Function","MC38 tumors [2]; day 17, vs. Control",1.8
same,"directed global significance score, MHC","MC38 tumors [2]; day 17, vs. Control",1.8
same,"directed global significance score, MHC class II antigen presentation","MC38 tumors [2]; day 17, vs. Control",1.8
same,"directed global significance score, Macrophage function","MC38 tumors [2]; day 17, vs. Control",1.8
same,"directed global significance score, Microglial Functions","MC38 tumors [2]; day 17, vs. Control",3
same,"directed global significance score, NK cell Function","MC38 tumors [2]; day 17, vs. Control",1.5
same,"directed global significance score, Pathogen Receptors","MC38 tumors [2]; day 17, vs. Control",1.3
same,"directed global significance score, Senescence","MC38 tumors [2]; day 17, vs. Control",1.3
same,"directed global significance score, T-cell Functions","MC38 tumors [2]; day 17, vs. Control",1.5
same,"directed global significance score, TLR","MC38 tumors [2]; day 17, vs. Control",1.5
same,"directed global significance score, TNF superfamily","MC38 tumors [2]; day 17, vs. Control",1.5
same,"directed global significance score, Transporter Function","MC38 tumors [2]; day 17, vs. Control",1.8
same,complete response (tumor regression),MC38 tumors [3],2 mice
same,partial response,MC38 tumors [3],3 mice
same,share of TRAEs associated with the agent,[1]; 63 subjects with AE data,39%
same,"Anemia, TRAE",[1]; G1-2,14 (22) n (% of N)
same,"Diarrhea, TRAE",[1]; G1-2,0 n (% of N)
same,"Fatigue, TRAE",[1]; G1-2,0 n (% of N)
same,"Hypophospatemia, TRAE",[1]; G1-2,6 (10) n (% of N)
same,"Lymphocyte decrease, TRAE",[1]; G1-2,0 n (% of N)
same,"Neutrophil decrease, TRAE",[1]; G1-2,8 (13) n (% of N)
same,"Platelet decrease, TRAE",[1]; G1-2,23 (37) n (% of N)
same,"WBC decrease, TRAE",[1]; G1-2,11 (17) n (% of N)
same,"Anemia, TRAE",[1]; G3,1 (2) n (% of N)
same,"Diarrhea, TRAE",[1]; G3,0 n (% of N)
same,"Fatigue, TRAE",[1]; G3,0 n (% of N)
same,"Hypophospatemia, TRAE",[1]; G3,4 (6) n (% of N)
same,"Lymphocyte decrease, TRAE",[1]; G3,0 n (% of N)
same,"Neutrophil decrease, TRAE",[1]; G3,5 (8) n (% of N)
same,"Platelet decrease, TRAE",[1]; G3,3 (5) n (% of N)
same,"WBC decrease, TRAE",[1]; G3,1 (2) n (% of N)
same,"Anemia, TRAE",[1]; G4,0 n (% of N)
same,"Diarrhea, TRAE",[1]; G4,0 n (% of N)
same,"Fatigue, TRAE",[1]; G4,0 n (% of N)
same,"Hypophospatemia, TRAE",[1]; G4,0 n (% of N)
same,"Lymphocyte decrease, TRAE",[1]; G4,0 n (% of N)
same,"Neutrophil decrease, TRAE",[1]; G4,1 (2) n (% of N)
same,"Platelet decrease, TRAE",[1]; G4,0 n (% of N)
same,"WBC decrease, TRAE",[1]; G4,0 n (% of N)
O=c1[nH]cnc2c([C@@H]3N[C@H](CO)[C@@H](O)[C@H]3O)c[nH]c12 [Forodesine],ORR,RR/PTCL,22%
B1,ORR,RR/ATL,50%
